Test results taken from US9006205B2, “Antisense oligonucleotides against neutral sphingomyelinase and neutral sphingomyelinase inhibitor GW4869 for degenerative neurological disorders” (Rush University Medical Center, priority 2011, dated 2015).

Experiments:
Assay type in all cases: cell-based
A-SMase = target: T1, A-SMase (Homo sapiens, UniProt P17405); assay: Assay of A-SMase activity in primary human neurons; conditions: activated astroglia-insulted human neurons, chemical inhibitors
T1 construct: The supernatant was used as the source of A-SMase; endogenous in cells; host or cells: primary human neurons
T1 sequence (P17405 47-631): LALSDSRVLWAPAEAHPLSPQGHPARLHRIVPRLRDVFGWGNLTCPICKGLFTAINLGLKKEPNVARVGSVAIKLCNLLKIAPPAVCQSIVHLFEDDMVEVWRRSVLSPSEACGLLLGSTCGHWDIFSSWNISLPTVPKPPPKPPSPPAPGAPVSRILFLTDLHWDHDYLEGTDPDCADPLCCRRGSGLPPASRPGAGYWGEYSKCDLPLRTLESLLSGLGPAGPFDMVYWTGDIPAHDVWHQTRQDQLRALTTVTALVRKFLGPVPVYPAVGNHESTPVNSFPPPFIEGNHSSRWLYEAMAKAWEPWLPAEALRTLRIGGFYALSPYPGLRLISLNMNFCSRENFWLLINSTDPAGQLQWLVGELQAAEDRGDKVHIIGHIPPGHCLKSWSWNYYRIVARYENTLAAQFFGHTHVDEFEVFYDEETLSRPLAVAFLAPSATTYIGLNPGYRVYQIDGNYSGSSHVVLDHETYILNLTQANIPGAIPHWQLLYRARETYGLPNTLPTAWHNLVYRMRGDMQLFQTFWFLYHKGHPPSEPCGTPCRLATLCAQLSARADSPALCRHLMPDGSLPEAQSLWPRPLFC
Protocol: Activities of SMase(s) were assayed as described by. Briefly, after treatment, the cells were washed with PBS, harvested in PBS, divided into two halves, and centrifuged. The fraction for N-SMase was resuspended in buffer A (100 mM Tris-HCl, pH 7.4, 0.1% Triton X-100, 1 mM EDTA, and protease inhibitors), and the cell suspension was sonicated and centrifuged at 500×g at 4° C. for 5 min. The supernatant was used as the enzyme source for N-SMase. The reaction mixture contained enzyme preparation in buffer A containing 5 nmol of [^14C] sphingomyelin, 5 nmol of phosphatidylserine, 5 mM dithiothreitol, and 5 mM MgC¾ in a final volume of 100 μl. […] The activity of A-SMase was measured in a 100-μl reaction mixture consisting of the enzyme preparation in buffer B and 5 nmol of [^14C] sphingomyelin. […]
In FIGS. 3A-3E, primary human astrocytes seeded in inserts were stimulated by the combination of Aβ and IL-Iβ as described above. […] In FIG. 3A, after 1 h, activity of N-SMase was measured in total cell extracts of neurons as described above. […] Values obtained from the control group served as 100%, and data obtained in other groups were calculated as percent of control accordingly. […] Primary human neurons were treated with 25 μM DETA-NONOate (a NO donor) and at different time points of treatment, activities of N-SMase (FIG. 3D) and A-SMase (FIG. 3E) were monitored. ^ap<0.001 vs control (0 h).

N-SMase = target: T2, N-SMase (Homo sapiens, UniProt Q9NY59); assay: Assay of N-SMase activity in primary human neurons; conditions: activated astroglia-insulted human neurons, chemical inhibitors
T2 construct: endogenous in cells; host or cells: primary human neurons
T2 sequence (Q9NY59 1-655): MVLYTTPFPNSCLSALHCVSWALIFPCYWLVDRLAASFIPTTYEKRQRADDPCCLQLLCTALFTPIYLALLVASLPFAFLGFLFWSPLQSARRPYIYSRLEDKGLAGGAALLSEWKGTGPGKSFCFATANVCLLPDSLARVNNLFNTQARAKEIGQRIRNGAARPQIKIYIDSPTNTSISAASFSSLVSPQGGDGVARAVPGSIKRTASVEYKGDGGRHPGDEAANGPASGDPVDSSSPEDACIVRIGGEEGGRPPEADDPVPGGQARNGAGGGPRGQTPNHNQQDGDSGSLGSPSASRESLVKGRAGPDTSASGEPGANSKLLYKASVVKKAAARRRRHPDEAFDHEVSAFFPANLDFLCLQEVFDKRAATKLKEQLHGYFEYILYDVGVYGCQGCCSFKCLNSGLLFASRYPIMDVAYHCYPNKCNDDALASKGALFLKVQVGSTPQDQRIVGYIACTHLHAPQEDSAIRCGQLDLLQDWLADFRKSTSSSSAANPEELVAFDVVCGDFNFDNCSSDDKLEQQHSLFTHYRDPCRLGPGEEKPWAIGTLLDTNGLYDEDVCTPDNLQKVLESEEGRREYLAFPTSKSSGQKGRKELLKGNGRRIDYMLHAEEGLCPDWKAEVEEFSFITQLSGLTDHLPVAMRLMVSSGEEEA
Protocol: Activities of SMase(s) were assayed as described by. Briefly, after treatment, the cells were washed with PBS, harvested in PBS, divided into two halves, and centrifuged. The fraction for N-SMase was resuspended in buffer A (100 mM Tris-HCl, pH 7.4, 0.1% Triton X-100, 1 mM EDTA, and protease inhibitors), and the cell suspension was sonicated and centrifuged at 500×g at 4° C. for 5 min. The supernatant was used as the enzyme source for N-SMase. The reaction mixture contained enzyme preparation in buffer A containing 5 nmol of [^14C] sphingomyelin, 5 nmol of phosphatidylserine, 5 mM dithiothreitol, and 5 mM MgC¾ in a final volume of 100 μl. Similarly, the fraction for A-SMase was resuspended in buffer B (100 mM sodium acetate, pH 5.0, 0.1% Triton X-100, and protease inhibitors). The cell suspension was sonicated and centrifuged. The supernatant was used as the source of A-SMase. The activity of A-SMase was measured in a 100-μl reaction mixture consisting of the enzyme preparation in buffer B and 5 nmol of [^14C] sphingomyelin. The enzyme reaction was initiated by the addition of 50 μl of substrate and stopped by the addition of 1.5 ml of chloroform:methanol (2:1, v/v) and 0.2 ml of water. After vortexing and phase separation, the aqueous phase was removed for counting.
In FIGS. 3A-3E, primary human astrocytes seeded in inserts were stimulated by the combination of Aβ and IL-Iβ as described above. After 24 h, media were removed and inserts were washed and placed on neurons that were pretreated with PTIO for 30 min. In FIG. 3A, after 1 h, activity of N-SMase was measured in total cell extracts of neurons as described above. After 18 h, neuronal viability was examined by the metabolism of MTT (FIG. 3B) and the release of LDH (FIG. 3C). Values obtained from the control group served as 100%, and data obtained in other groups were calculated as percent of control accordingly. Results are mean+S.D. of three different experiments. ^ap<0.001 vs control; ^bp<0.001 vs activated astrocytes. Primary human neurons were treated with 25 μM DETA-NONOate (a NO donor) and at different time points of treatment, activities of N-SMase (FIG. 3D) and A-SMase (FIG. 3E) were monitored. ^ap<0.001 vs control (0 h).

primary human astroglia = assay: NO synthesis (nitrite, Griess reagent) in primary human astroglia; conditions: astroglia preincubated 30 min with different concentrations of chemical inhibitor; nitrite after 24 h
Protocol: Synthesis of NO was determined by assay of culture supernatants for nitrite, a stable reaction product of NO with molecular oxygen, using Griess reagent as described.
After 24 h of stimulation, the concentration of nitrite was measured in supernatants (FIG. 4A) by Griess reagent. […] Cells were treated with ASO/ScO for 40 h followed by stimulation with the combination of fibrillar Aβ and IL-Iβ as above. After 6 h, the expression of iNOS mRNA was analyzed by both semi-quantitative RT-PCR (C) and quantitative real-time PCR (FIG. 4D). The expression of TNF-a, IL-6 and IL-Iβ mRNAs were analyzed by semi-quantitative RT-PCR (FIG. 4E). Results are mean±SD of three different experiments. ^ap<0.001 vs control; ^bp<0.001 vs (Aβ+IL-Iβ).

activity of A-SMase (A-SMase): inhibited
activity of N-SMase (N-SMase): but not N-SMase
Structure (SMILES): CN(C)CCCN1c2ccccc2CCc2ccccc21 [imipramine]
(Aβ+IL-1β)-induced production of NO (primary human astroglia): showed no effect
